Test results as given in patent US9249129B2, “Morpholino substituted urea derivatives as mTOR inhibitors” (CELLZOME LIMITED, priority 2010, dated 2016).
Where two headings read alike, the source gives them in different places.

Tests used:
[1] = target: T1, PI3Kβ (Homo sapiens, UniProt P42338); test: kinobeads assay, PI3K beta (dot blot detection); format: binding; conditions: Table 4, read-out: Inhibition values (IC50) PI3Kb
T1 construct: endogenous in cells; host or cells: Jurkat cells (ATCC TIB-152) lysate, the only lysate described
T1 sequence (P42338 whole entry): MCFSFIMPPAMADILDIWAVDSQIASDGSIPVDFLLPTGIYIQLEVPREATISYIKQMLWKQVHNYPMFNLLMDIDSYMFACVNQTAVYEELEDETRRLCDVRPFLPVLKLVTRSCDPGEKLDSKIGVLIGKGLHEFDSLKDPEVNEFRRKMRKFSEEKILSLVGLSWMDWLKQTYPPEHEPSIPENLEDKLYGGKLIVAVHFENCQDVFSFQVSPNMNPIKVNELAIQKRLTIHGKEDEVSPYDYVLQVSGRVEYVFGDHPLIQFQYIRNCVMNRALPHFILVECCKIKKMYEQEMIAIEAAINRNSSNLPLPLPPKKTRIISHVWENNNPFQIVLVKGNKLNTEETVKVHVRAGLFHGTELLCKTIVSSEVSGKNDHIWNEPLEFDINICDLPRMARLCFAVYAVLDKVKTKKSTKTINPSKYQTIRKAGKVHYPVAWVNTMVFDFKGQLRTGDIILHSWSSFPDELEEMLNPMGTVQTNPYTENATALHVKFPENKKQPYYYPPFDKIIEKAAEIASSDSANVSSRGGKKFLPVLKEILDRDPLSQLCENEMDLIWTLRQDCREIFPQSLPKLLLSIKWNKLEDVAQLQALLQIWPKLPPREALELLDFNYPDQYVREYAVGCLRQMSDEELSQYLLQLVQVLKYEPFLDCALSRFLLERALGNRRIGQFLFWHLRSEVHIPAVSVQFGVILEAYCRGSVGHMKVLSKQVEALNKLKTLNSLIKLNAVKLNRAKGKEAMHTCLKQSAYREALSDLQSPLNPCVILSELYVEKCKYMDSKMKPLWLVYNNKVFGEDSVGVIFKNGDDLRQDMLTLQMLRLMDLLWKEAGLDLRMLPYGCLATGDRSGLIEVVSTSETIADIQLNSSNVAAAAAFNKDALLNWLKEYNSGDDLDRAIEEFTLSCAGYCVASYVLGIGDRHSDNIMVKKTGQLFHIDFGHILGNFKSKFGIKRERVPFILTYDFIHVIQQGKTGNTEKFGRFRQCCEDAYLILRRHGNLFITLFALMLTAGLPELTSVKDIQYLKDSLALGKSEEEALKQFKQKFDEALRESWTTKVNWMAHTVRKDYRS
T1 sequence (P27986 whole entry partner): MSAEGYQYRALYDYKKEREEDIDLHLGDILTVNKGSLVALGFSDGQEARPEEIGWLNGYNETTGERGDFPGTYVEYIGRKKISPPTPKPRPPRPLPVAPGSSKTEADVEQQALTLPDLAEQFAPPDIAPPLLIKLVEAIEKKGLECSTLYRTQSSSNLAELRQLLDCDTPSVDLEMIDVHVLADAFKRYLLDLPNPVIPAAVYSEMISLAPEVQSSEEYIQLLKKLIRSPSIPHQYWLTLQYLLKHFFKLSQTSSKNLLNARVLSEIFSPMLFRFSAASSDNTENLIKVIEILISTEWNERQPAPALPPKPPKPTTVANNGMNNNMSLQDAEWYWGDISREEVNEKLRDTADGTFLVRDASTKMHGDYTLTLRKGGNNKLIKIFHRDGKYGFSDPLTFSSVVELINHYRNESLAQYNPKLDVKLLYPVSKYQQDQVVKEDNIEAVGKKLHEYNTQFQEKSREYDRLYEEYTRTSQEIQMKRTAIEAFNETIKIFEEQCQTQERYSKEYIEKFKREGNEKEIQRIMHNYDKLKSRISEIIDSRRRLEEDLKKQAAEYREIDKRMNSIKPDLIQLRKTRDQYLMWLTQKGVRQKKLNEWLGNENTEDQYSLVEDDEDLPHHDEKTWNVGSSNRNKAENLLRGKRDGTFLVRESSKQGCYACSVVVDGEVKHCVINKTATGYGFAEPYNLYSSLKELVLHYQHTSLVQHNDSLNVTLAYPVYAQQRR

[2] = target: T2, DNA-dependent protein kinase (DNA-PK) (Homo sapiens, UniProt P78527); test: kinobeads assay, DNA-PK (dot blot detection); format: binding
T2 construct: endogenous in cells; host or cells: Jurkat cells (ATCC TIB-152, clone E6-1), lysate
Summary of the method: (§1)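 Jurkat cell lysate (5 mg/mL protein) incubated 2 h in the cold with test compound (9-step 1:3 series) and immobilized phenylthiazole/phenylmorpholin-chromen ligand beads. Bead-bound kinases eluted, detected by specific antibody dot blot with infrared readout; IC50 from dose-response curves.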

[3] = target: T3, PI3Kα (Homo sapiens, UniProt P42336); test: kinobeads assay, PI3K alpha (dot blot detection); format: binding; conditions: Table 4, read-out: Inhibition values (IC50) PI3Ka
T3 construct: endogenous in cells; host or cells: Jurkat cells (ATCC TIB-152) lysate, the only lysate described
T3 sequence (P42336 whole entry): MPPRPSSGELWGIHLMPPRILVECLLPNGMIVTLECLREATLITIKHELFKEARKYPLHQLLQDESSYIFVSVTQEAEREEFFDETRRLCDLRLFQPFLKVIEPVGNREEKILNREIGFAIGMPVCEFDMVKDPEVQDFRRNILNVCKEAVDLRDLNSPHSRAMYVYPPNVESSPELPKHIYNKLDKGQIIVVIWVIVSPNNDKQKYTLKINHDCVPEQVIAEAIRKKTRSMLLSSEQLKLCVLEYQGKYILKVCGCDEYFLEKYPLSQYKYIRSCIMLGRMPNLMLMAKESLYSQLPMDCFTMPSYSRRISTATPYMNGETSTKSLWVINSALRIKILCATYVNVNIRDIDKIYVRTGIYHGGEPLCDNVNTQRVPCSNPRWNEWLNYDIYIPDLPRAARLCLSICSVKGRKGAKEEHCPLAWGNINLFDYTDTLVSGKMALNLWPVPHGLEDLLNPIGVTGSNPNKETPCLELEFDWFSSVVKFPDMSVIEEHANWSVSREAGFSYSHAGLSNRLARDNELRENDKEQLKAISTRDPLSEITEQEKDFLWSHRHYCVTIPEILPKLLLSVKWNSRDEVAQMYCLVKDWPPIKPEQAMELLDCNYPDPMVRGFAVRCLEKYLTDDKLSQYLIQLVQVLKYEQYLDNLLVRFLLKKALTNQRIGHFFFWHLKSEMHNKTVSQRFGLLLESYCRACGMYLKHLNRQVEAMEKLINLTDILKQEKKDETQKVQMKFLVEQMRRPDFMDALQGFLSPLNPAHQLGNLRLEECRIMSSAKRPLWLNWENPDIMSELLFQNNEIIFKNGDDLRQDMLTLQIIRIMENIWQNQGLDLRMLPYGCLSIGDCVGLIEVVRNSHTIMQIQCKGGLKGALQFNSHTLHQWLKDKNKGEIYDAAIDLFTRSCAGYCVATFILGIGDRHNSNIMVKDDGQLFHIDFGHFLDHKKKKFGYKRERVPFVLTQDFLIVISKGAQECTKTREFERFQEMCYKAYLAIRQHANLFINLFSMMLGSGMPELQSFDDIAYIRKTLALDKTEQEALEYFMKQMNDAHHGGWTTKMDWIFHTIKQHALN
T3 sequence (P27986 whole entry partner): as the sequence (P27986 whole entry partner) above

[4] = tested on: S6RP serine-240/244 phosphorylation in HEK293T/17 cells; test: In vitro phospho-S6 cellular assay (pS6RP S240/244); format: cell-based; conditions: Homo sapiens, Table 6, 2 hours, S6RP Ser240/244, read-out: pS6 (phospho-S6 cell assay data, activity level)
Description: In Vitro Phospho-S6 and Phospho-Akt Cellular Assay
Activation of mTOR signaling results in phosphorylation of several downstream targets. In cells, mTOR exists in two different protein complexes. The mTOR Complex-1 (mTORC1) phosphorylates and activates S6 Kinase 1 (S6K1) and S6 Kinase 2 (S6K2) (also known as p70S6K) which then phosphorylate S6 Ribosomal Protein (S6RP) (also known as RPS6). S6RP is phosphorylated on serine 235, serine 236, serine 240 and serine 244 by both pS6K1 and pS6K2. The mTOR Complex-2 (mTORC2) phosphorylates AKT on serine 473 which activates the AKT signaling pathway.
The assay measures a test compound's inhibition of S6RP serine-240/244 phosphorylation and inhibition of Akt serine-473 phosphorylation in human embryonic kidney derived HEK293T/17 cells (ATCC CRL-11268).
The HEK293T/17 cell line is maintained in DMEM media (Invitrogen catalogue number 41965-039) supplemented with 10% FCS at 37° C. in a 5% CO2 humidified incubator.
Cells are seeded in 96-well plates at 40,000 cells/well (pS6RP S240/244 assay) or 80,000 cells/well (pAkt 5473 assay) in 90 μl growth media (DMEM, 2% FCS). Plates are incubated for 1 hour in a humidified incubator to allow the cells to adhere. Cells are treated with 8 concentrations of test compounds or DMSO alone for controls (final DMSO concentration 0.1%) and incubated at 37° C. for 2 hours. Then 20 μl of 5× concentrated lysis buffer (750 mM NaCl, 100 mM Tris pH7.4, 5 mM EDTA, 5 mM EGTA, 5% Triton X-100) is added, plates are sealed and incubated for 15 minutes at 4° C. with gentle shaking. After cell lysis, 25 μl cell lysate is transferred to a MesoScale plate coated with an antibody to pS6RP Ser240/244 (MesoScale Discovery K150DGD-3) or an antibody to pAkt Ser 473 (MesoScale Discovery K151DGD-3). Plates have been blocked before by incubation with 150 μl MesoScale Discovery Blocking Solution-A for 1 hour at room temperature followed by washing with 150 μl 1× Tris wash buffer per well. After the transfer of the cell lysate to the MSD plate, the pS6RP (or pAkt) protein is captured on the coated antibody by incubation at room temperature for 1 hour with gentle shaking. After the capture step the plate is washed three times with 150 μl of 1× Tris wash buffer per well. Then 25 μl detection antibody conjugated with a Sulfo-Tag is added and incubated for 1 hour at room temperature with gentle shaking. Subsequently the antibody solution is removed and the plate is washed 3 times with 150 μl 1× Tris wash buffer per well and 150 μl Read buffer is added. The plates are analysed on a MSD 2400 Plate Reader (MesoScale Discovery). Data analysis is performed using nonlinear regression for a sigmoidal dose-response with a variable slope.

[5] = target: T4, PI3Kγ (Homo sapiens, UniProt P48736); test: kinobeads assay, PI3K gamma (dot blot detection); format: binding; conditions: Table 4, read-out: Inhibition values (IC50) PI3Kg
T4 construct: endogenous in cells; host or cells: Jurkat cells (ATCC TIB-152) lysate, the only lysate described
T4 sequence (P48736 whole entry): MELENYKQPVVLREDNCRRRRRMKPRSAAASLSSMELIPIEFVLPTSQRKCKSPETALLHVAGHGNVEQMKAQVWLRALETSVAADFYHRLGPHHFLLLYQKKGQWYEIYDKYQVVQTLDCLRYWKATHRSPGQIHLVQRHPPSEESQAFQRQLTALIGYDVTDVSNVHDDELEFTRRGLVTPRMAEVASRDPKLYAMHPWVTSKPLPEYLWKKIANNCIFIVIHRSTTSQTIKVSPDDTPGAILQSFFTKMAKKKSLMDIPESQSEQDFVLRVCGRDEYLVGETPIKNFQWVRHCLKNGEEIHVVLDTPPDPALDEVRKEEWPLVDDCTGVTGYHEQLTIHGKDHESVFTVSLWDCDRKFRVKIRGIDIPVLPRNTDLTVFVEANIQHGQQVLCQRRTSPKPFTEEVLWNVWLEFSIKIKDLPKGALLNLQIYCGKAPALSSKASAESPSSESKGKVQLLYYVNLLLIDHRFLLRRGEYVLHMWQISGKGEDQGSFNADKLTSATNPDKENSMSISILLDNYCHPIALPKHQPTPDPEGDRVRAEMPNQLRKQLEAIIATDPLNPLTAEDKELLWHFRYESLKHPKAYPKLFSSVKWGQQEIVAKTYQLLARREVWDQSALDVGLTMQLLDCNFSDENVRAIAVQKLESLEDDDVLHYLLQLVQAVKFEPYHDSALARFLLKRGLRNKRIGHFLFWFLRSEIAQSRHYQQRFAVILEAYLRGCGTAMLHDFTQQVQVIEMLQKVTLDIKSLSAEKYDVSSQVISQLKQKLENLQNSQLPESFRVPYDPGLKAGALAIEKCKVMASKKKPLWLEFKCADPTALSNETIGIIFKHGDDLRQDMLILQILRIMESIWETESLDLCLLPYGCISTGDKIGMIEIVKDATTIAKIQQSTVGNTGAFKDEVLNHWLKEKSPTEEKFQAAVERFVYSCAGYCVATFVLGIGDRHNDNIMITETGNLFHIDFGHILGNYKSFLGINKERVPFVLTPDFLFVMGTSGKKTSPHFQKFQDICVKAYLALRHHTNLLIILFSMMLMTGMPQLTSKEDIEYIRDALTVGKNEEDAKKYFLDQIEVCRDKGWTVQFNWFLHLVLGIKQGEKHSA

[6] = target: T5, mTOR (Homo sapiens, UniProt P42345); test: mTOR kinobeads assay (dot blot detection); format: binding
T5 construct: endogenous in cells; host or cells: Jurkat cells (ATCC TIB-152, clone E6-1), lysate
Summary of the method: as §1

[7] = target: T6, PI3K delta (PI3Kd) (Homo sapiens, UniProt O00329); test: kinobeads assay, PI3K delta (dot blot detection); format: binding
T6 construct: endogenous in cells; host or cells: Jurkat cells (ATCC TIB-152, clone E6-1), lysate
T6 sequence (O00329 whole entry): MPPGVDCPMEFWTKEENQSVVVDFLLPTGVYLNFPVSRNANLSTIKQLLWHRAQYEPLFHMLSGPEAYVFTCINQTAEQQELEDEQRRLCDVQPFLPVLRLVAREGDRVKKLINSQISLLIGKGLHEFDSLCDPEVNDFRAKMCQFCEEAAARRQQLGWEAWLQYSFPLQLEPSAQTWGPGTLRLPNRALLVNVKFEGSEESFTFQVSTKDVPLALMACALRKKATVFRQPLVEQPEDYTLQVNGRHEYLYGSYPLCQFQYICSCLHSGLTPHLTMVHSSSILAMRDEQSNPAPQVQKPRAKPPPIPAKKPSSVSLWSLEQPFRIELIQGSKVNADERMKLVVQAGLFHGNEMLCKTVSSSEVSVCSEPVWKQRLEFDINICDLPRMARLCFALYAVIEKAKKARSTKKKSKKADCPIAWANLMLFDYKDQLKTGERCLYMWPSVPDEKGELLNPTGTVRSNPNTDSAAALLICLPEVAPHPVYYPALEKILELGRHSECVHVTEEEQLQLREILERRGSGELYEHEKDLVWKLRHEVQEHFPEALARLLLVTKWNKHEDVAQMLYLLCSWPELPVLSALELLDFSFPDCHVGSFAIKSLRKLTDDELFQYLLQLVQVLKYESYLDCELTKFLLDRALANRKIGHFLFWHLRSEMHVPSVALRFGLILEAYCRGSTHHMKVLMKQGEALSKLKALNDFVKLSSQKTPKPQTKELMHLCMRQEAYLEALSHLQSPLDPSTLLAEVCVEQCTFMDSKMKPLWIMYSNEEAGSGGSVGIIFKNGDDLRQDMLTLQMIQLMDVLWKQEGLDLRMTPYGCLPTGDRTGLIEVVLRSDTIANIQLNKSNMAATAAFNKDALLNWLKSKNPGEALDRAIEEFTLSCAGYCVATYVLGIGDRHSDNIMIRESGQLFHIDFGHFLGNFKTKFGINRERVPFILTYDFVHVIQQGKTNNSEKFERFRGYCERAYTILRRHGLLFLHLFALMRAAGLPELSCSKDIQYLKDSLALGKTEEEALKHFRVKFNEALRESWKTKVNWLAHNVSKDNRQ
T6 sequence (P27986 whole entry partner): as the sequence (P27986 whole entry partner) above
Summary of the method: as §1

[8] = Table 2, Jurkat cell lysate, read-out: Inhibition values (IC50) DNAPK
[9] = Table 4, read-out: Inhibition values (IC50) DNAPK
[10] = Table 2, Jurkat cell lysate, read-out: Inhibition values (IC50) mTor
[11] = Table 4, read-out: Inhibition values (IC50) mTOR
[12] = Table 2, Jurkat cell lysate, read-out: Inhibition values (IC50) PI3Kd
[13] = Table 4, read-out: Inhibition values (IC50) PI3Kd

SMILES	IC50 [1] [µM]	IC50 [2, 8] [µM]	IC50 [2, 9] [µM]	IC50 [3] [µM]	IC50 [5] [µM]	IC50 [6, 10] [µM]	IC50 [6, 11] [µM]	IC50 [7, 12] [µM]	IC50 [7, 13] [µM]	IC50 [4] [µM]
CCNC(=O)Nc1ccc(-c2nccc(N3CCOC[C@@H]3C)n2)cc1 [Example 37, (S)-1-ethyl-3-(4-(4-(3-methylmorpholino)pyrimidin-2-yl)phenyl)urea]	≥ 10	≥ 10	≥ 10	≥ 10	≥ 10	1 to 10	0.1 to 1	≥ 10	≥ 10	0.1 to 1
CCNC(=O)Nc1ccc(-c2ccnc(N3CCOC[C@@H]3C)n2)cc1 [Example 38, (S)-1-ethyl-3-(4-(2-(3-methylmorpholino)pyrimidin-4-yl)phenyl)urea]	≥ 10	≥ 10	≥ 10	≥ 10	≥ 10	1 to 10	1 to 10	≥ 10	≥ 10	0.1 to 1
C[C@H]1COCCN1c1nccc(-c2ccc(NC(=O)NC3CC3)cc2)n1 [Example 39, (S)-1-cyclopropyl-3-(4-(2-(3-methylmorpholino)pyrimidin-4-yl)phenyl)urea]	≥ 10	≥ 10	≥ 10	≥ 10	≥ 10	1 to 10	1 to 10	≥ 10	≥ 10	0.1 to 1
C[C@H]1COCCN1c1nc(-c2ccc(NC(=O)NC3CC3)cc2)cc(-c2cccnc2[S+](C)[O-])n1 (stereo partly drawn) [Example 45, 1-cyclopropyl-3-(4-(2-((S)-3-methylmorpholino)-6-(2-(methylsulfinyl)pyridin-3-yl)pyrimidin-4-yl)phenyl)urea]	1 to 10	≥ 10	≥ 10	1 to 10	≥ 10	< 0.1	< 0.1	1 to 10	1 to 10	0.1 to 1
O=C(Nc1ccc(-c2nccc(N3CC4CCC(C3)O4)n2)cc1)NC1CC1 [Example 48, 1-(4-(4-(8-oxa-3-azabicyclo[3.2.1]octan-3-yl)pyrimidin-2-yl)phenyl)-3-cyclopropylurea]	≥ 10	1 to 10	1 to 10	≥ 10	≥ 10	0.1 to 1	0.1 to 1	≥ 10	≥ 10	0.1 to 1
CCNC(=O)Nc1ccc(-c2nccc(N3CC4CCC(C3)O4)n2)cc1 [Example 49, 1-(4-(4-(8-oxa-3-azabicyclo[3.2.1]octan-3-yl)pyrimidin-2-yl)phenyl)-3-ethylurea]	≥ 10	1 to 10	1 to 10	≥ 10	≥ 10	0.1 to 1	0.1 to 1	≥ 10	≥ 10	0.1 to 1
O=C(NCCO)Nc1ccc(-c2nccc(N3CC4CCC(C3)O4)n2)cc1 [Example 50, 1-(4-(4-(8-oxa-3-azabicyclo[3.2.1]octan-3-yl)pyrimidin-2-yl)phenyl)-3-(2-hydroxyethyl)urea]	≥ 10	1 to 10	1 to 10	≥ 10	≥ 10	< 0.1	< 0.1	≥ 10	≥ 10	0.1 to 1

The next lines start with results.

IC50 [1] [µM]	IC50 [2, 8] [µM]	IC50 [2, 9] [µM]	IC50 [3] [µM]	IC50 [5] [µM]	IC50 [6, 10] [µM]	IC50 [6, 11] [µM]	IC50 [7, 12] [µM]	IC50 [7, 13] [µM]	SMILES	IC50 [4] [µM]
≥ 10	1 to 10	1 to 10	≥ 10	≥ 10	0.1 to 1	0.1 to 1	≥ 10	≥ 10	O=C(NCC(F)F)Nc1ccc(-c2nccc(N3CC4CCC(C3)O4)n2)cc1 [Example 51, 1-(4-(4-(8-oxa-3-azabicyclo[3.2.1]octan-3-yl)pyrimidin-2-yl)phenyl)-3-(2,2-difluoroethyl)urea]	0.1 to 1
≥ 10	1 to 10	1 to 10	≥ 10	≥ 10	0.1 to 1	0.1 to 1	≥ 10	≥ 10	O=C(NCCF)Nc1ccc(-c2nccc(N3CC4CCC(C3)O4)n2)cc1 [Example 52, 1-(4-(4-(8-oxa-3-azabicyclo[3.2.1]octan-3-yl)pyrimidin-2-yl)phenyl)-3-(2-fluoroethyl)urea]	0.1 to 1
≥ 10	≥ 10	≥ 10	1 to 10	≥ 10	0.1 to 1	0.1 to 1	≥ 10	≥ 10	C[C@H]1COCCN1c1ccnc(-c2ccc(NC(=O)NCCO)cc2)n1 [Example 53, (S)-1-(2-hydroxyethyl)-3-(4-(4-(3-methylmorpholino)pyrimidin-2-yl)phenyl)urea]	0.1 to 1
≥ 10	≥ 10	≥ 10	≥ 10	≥ 10	0.1 to 1	0.1 to 1	≥ 10	≥ 10	C[C@H]1COCCN1c1ccnc(-c2ccc(NC(=O)NCC(F)F)cc2)n1 [Example 54, (S)-1-(2,2-difluoroethyl)-3-(4-(4-(3-methylmorpholino)pyrimidin-2-yl)phenyl)urea]	0.1 to 1
